Data taken from US11226337B2, “Chemoproteomic profiling of protein electrophilic and oxidative post-translational modifications” (Zenagem, LLC, priority 2017, dated 2022).
Entries after “also recorded” stand apart in the source; their conditions may differ.

Tests used:
AMD1 = target: T1, AMD1 (Homo sapiens, UniProt P17707); assay: gel-based RP-ABPP of transfected HEK293T cells; type: cell-based; settings: for blocking of probe labeling by excess non-clickable probe: transfected HEK293T cells
T1 construct: Full-length genes encoding three probe 1- and one probe 2-targeted proteins were amplified from a cDNA library; expressed in transfected cells; host or cells: HEK293T
T1 sequence (P17707 68-334 limits assumed): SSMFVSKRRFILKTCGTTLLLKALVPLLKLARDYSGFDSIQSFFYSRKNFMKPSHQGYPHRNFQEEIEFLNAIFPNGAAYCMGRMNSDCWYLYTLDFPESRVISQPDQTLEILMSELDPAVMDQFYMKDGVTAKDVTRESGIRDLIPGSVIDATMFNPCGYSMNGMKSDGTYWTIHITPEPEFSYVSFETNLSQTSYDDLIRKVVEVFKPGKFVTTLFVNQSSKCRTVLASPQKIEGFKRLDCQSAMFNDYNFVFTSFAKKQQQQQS
T1 sequence (P17707 1-67 limits assumed): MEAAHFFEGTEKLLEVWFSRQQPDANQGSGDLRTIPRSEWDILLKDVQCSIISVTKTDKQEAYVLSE

[1] = target: T2, SCRN2 Secernin-2 (Q96FV2) (Homo sapiens, UniProt Q96FV2); assay: SILAC RP-ABPP; type: cell-based; settings: SILAC competition, drug in place of probe 3
T2 construct: shared by both the endogenous and recombinant forms of these proteins; endogenous in cells; host or cells: HEK293T and MDA-MB-231
Description: (§1) Modifications to this protocol included using isotopically ‘light’ and ‘heavy’ SILAC cells that were also grown to near complete confluence prior to treatment. Isotopically light cells were treated with the non-clickable hydrazine probe (at the same concentration as the probe in ‘enrichment’ experiments) or the probe in the presence of 10-fold excess non-clickable hydrazine probe as a competitor (in ‘competition’ experiments). Isotopically heavy cells were treated with the probe for both types of experiments. These treatments were performed in non-SILAC media. Following treatments, cells were washed with cold PBS to remove the probe-containing media, harvested by scraping, collected by centrifugation (1,400 g, 3 min, 4° C.), washed again by resuspension in cold PBS and frozen as pellets at −80° C. until use.
(§2) The fractionated equimolar mixture of heavy and light soluble proteomes (1-1.5 mg) was diluted to 1 mL in PBS. Click reactions were scaled accordingly (except for biotin-azide) to maintain final concentrations of 0.1 mM TBTA, 1 mM CuSO4, 100 μM biotin-azide (10 mM in DMSO) and 1 mM TCEP. The mixture was vortexed and placed on a rotator at ambient temperature for 1 hour. Sequential addition of and mixture with pre-chilled methanol (MeOH, 2 mL), chloroform (CHCl3, 0.5 mL) and PBS (1 mL) on ice quenched the reaction. The precipitated proteome was centrifuged (5,000 g, 10 min, 4° C.) to fractionate the protein interphase from the organic and aqueous solvent layers. The protein pellet was washed with cold 1:1 MeOH:CHCl3 (3×1 mL), mildly sonicated in cold 4:1 MeOH:CHCl3 (2.5 mL) and pelleted once more by centrifugation (5,000 g, 10 min, 4° C.) to ensure click reagents were efficiently removed.
(§3) Heavy and light parent ion chromatograms associated with successfully identified peptides were extracted and compared using CIMAGE software as previously described^69. At least one ion of a co-eluting heavy-light pair must be accurately identified from a fragmentation event that occurred within the retention time window (±10 min) of parent ion elution. To ensure that the correct pair of peaks is quantified, chromatograms are extracted within a 10 ppm error tolerance of the predicted m/z, the signal-to-noise ratio must be >2.5 and the ‘co-elution correlation score’ and ‘envelope correlation score’ must have R^2 values ≥0.8. In addition, peptides detected as ‘singletons,’ where only the heavy ion of a peptide pair was identified, but for which passed all other filtering parameters, are given a default assigned ratio of ‘20,’ which is defined as any measured ratio that is ≥20.
(§4) To further eliminate false positives and any stochastic variability in the data, protein ratios were then determined by the median peptide ratio derived from three or more unique quantified peptides. Protein ratios that complied with these criteria from a single experiment were then averaged with ratios acquired from ≥3 replicates to provide final values for each type of experiment in both cell lines with both probes. […] Probe targets in HEK293T and MDA-MB-231 cells represent data combined from ≥3 independent biological replicates with each cell type performed with several independent batches of synthesized probes over a period of almost two years.
(§5) Two types of experiments were performed—1) direct enrichment of probe 1-labelled proteins from heavy cells in comparison to light control cells treated with the non-clickable hydrazine (3) at the same concentration as 1 (3 mM for 0.5 h); and 2) competition experiments where both heavy and light cells were treated probe 1, but light cells were also treated with 10× competitor 3 (FIG. 3A)—in two different human cell lines (HEK293T cells and the human breast cancer cell line MDA-MB-231).

[2] = target: T3, AMD1 S-adenosylmethionine decarboxylase (P17707) (Homo sapiens, UniProt P17707); assay: SILAC RP-ABPP; type: cell-based; settings: SILAC competition, drug in place of probe 3
T3 construct: shared by both the endogenous and recombinant forms of these proteins; endogenous in cells; host or cells: HEK293T and MDA-MB-231
T3 sequence (P17707 68-334 limits assumed): T1 sequence (P17707 68-334 limits assumed)
T3 sequence (P17707 1-67 limits assumed): T1 sequence (P17707 1-67 limits assumed)
Description: as §1, §2, §3, §4, §5

LGMN Legumain (Q99538) = target: T4, LGMN Legumain (Q99538) (Homo sapiens, UniProt Q99538); assay: SILAC RP-ABPP; type: cell-based; settings: SILAC competition, drug in place of probe 3
T4 construct: shared by both the endogenous and recombinant forms of these proteins; endogenous in cells; host or cells: HEK293T and MDA-MB-231
T4 sequence (Q99538 18-323): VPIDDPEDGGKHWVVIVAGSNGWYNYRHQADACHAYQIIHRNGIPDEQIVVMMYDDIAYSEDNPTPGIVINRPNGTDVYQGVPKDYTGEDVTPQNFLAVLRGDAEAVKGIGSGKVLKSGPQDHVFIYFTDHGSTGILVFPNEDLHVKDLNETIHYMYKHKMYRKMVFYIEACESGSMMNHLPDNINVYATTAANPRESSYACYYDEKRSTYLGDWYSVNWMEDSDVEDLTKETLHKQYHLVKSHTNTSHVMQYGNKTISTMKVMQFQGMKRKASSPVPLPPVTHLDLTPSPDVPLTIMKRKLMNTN
Description: as §1, §2, §3, §4, §5

[3] = target: T5, SCRN3 Secernin-3 (Q0VDG4) (Homo sapiens, UniProt Q0VDG4); assay: SILAC RP-ABPP; type: cell-based; settings: SILAC competition, drug in place of probe 3
T5 construct: shared by both the endogenous and recombinant forms of these proteins; endogenous in cells; host or cells: HEK293T and MDA-MB-231
T5 sequence (Q0VDG4 6-424): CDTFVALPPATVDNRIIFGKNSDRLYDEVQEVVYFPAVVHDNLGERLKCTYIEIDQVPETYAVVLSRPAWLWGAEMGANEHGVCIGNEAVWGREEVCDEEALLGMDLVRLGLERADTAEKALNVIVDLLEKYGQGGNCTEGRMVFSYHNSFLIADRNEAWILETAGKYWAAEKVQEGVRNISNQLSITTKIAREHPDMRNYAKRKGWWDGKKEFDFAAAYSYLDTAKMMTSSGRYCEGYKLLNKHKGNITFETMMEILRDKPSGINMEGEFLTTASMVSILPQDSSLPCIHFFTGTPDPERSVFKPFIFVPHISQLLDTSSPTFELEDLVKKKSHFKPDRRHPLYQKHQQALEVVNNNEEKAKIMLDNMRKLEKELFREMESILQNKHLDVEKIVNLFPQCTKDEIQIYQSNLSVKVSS
Description: as §1, §2, §3, §4, §5

HEK293T cells = assay: gel-based in situ probe labelling (rhodamine-azide, in-gel fluorescence); type: cell-based, human; settings: probe 1 3 mM, 30 min; dihydrochloride
Description: For gel-based experiments, cells were plated and grown to near complete confluence at the time of treatment. Cells were washed with cold phosphate buffered saline (PBS, pH 7.4) and replenished with serum-free DMEM (˜15% of normal passage volume, e.g. a 10 cm plate normally passaged with 10 mL media received 1.5 mL) supplemented with 10 mM Na-HEPES buffer (pH 7.5). Unless otherwise indicated, cells were incubated with probes (3 mM and 1 mM for probes 1 and 2, respectively) in the absence or presence of 10-fold excess non-clickable competitor probes (30 mM and 10 mM for 3 and 4, respectively) for 0.5 hour at 37° C. When applicable, probe and competitor were premixed before co-administering to the cells.
The cells were lysed, and the cell proteomes were conjugated to a rhodamine-azide (Rh—N3) reporter tag.
(§6) Soluble proteomes from treated cells were diluted to 1 mg/mL. To each sample (50 μL), a freshly prepared “click” or CuAAC reagent mixture (6 μL) containing 0.1 mM tris(benzyltriazolylmethyl)amine (TBTA) (3 μL/sample, 1.7 mM in 4:1 DMSO:t-BuOH), 1 mM CuSO4 (1 μL/sample, 50 mM in H2O), 25 μM azide-rhodamine (1 μL/sample, 1.25 mM in DMSO), and freshly prepared 1 mM tris(2-carboxyethyl)phosphine (TCEP) (1 μL/sample, 50 mM in PBS or H2O) was added to conjugate the fluorophore to probe-labelled proteins. TBTA was purchased from TCI and azide-rhodamine was synthesized as previously described^64. Upon addition of the click mixture, each reaction was immediately mixed by vortexing and then allowed to react at ambient temperature for 1 hour before quenching the reactions with SDS loading buffer (4× stock, 17 μL). Proteins (˜25 μg total protein loaded per gel lane) were resolved by SDS-PAGE (10% acrylamide) and visualized by in-gel fluorescence scanning on a Hitachi FMBIO-II or BioRad ChemiDoc MP flatbed fluorescence scanner.

KEAP1 = target: T6, KEAP1 (Homo sapiens, UniProt Q14145); assay: gel-based RP-ABPP of transfected HEK293T cells; type: cell-based; settings: transfected HEK293T cells
T6 construct: Full-length genes encoding three probe 1- and one probe 2-targeted proteins were amplified from a cDNA library; expressed in transfected cells; host or cells: HEK293T
Description: as §6
(§7) Full-length genes encoding three probe 1- and one probe 2-targeted proteins were amplified from a cDNA library derived from the same low-passage HEK293T cells used for proteomic profiling. The library was generated using Ribozol RNA extraction (Amresco) and iScript reverse transcription (Bio-rad) supermix reagents. The gene products were cloned into mammalian expression vectors containing N- or C-terminal FLAG affinity tags. The gene for S-adenosyl-L-methionine decarboxylase (AMD1 or AdoMetDC) was cloned into pFLAG-CMV-sport6 (N-terminal tag) at NotI and SalI restriction sites. AMD1, Secernin-3 (SCRN3) and fat mass- and obesity-associated Fe(II)- and 20G-dependent dioxygenase (FTO) were cloned into pRK5 (C-terminal tag) at SalI and NotI restriction sites. Kelch-like ECH-associated protein-1 (Keapl) (N-terminal tag), and empty plasmids of pRK5 were gifts. Full sequences of the genes were confirmed. The proteins expressed via transient transfection in HEK293T cells contain an additional 15 amino acids appended to their N-terminal methionine residue or C-terminus (MDYKD4KLKACGR (SEQ ID NO: 43) and A3G4DYKD4K (SEQ ID NO: 44), respectively). The DYKD4K (SEQ ID NO: 42) appendage in each contains the classic FLAG epitope that permits detection by western blotting or purification by affinity chromatography. Mutants of SCRN3 were generated using QuikChange site-directed mutagenesis with primers containing the desired mutations and their respective compliments. The gene for the deletion mutant of SCRN3 with the sequence MetlCys6-SCRN3 instead of Met1 Glu2Pro3Phe4Ser5Cys6-SCRN3 (SEQ ID NO: 45) was amplified from the wild-type C-terminal FLAG-tagged construct and cloned into the same vector.
(§8) HEK293T cells were grown to ˜40% confluence under standard growth conditions passaged in the appropriate media before adding the appropriate expression vector (control cells (‘mock’) received an equal amount of the appropriate empty vector) and polyethyleneimine (PEI) ‘MAX’ (MW 40,000, Polysciences Inc.) as a transfection reagent under standard transfection conditions (3:1 vector/PEI (w/w) ratio). Cells were incubated for ˜48 h before labelling in situ. Proteomes were processed for gel- and MS-based experiments as described above and in Example 2.
(§9) After scanning fluorescence, that same gel was transferred to nitrocellulose membrane in Towbin buffer, the membrane was blocked for ˜1 hour at ambient temperature with 5% nonfat dry milk (w/v) in Tris-buffered saline with Tween 20 (TBST) and incubated with primary antibodies in the same solution overnight at 4° C. The antibodies included anti-FLAG (1:2500, F1804, Sigma), anti-AdoMetDC (1:500, sc-160951, Santa Cruz Biotechnology) and anti-His6 (1:1000, ab18184, Abcam). The blots were washed (3×5 min, TBST), incubated with secondary antibodies (1:10,000, IRDye 800CW, LICOR) in milk for 1 hour at ambient temperature, washed again (3×5 min, TBST), and visualized on a LICOR Odyssey Scanner.

FTO = target: T7, FTO (Homo sapiens, UniProt Q9C0B1); assay: gel-based RP-ABPP of transfected HEK293T cells; type: cell-based; settings: transfected HEK293T cells
T7 construct: Full-length genes encoding three probe 1- and one probe 2-targeted proteins were amplified from a cDNA library; expressed in transfected cells; host or cells: HEK293T
Description: as §6, §7, §8, §9

SCRN3 = target: T8, SCRN3 (Homo sapiens, UniProt Q0VDG4); assay: gel-based RP-ABPP of transfected HEK293T cells; type: cell-based; settings: transfected HEK293T cells
T8 construct: Full-length genes encoding three probe 1- and one probe 2-targeted proteins were amplified from a cDNA library; expressed in transfected cells; host or cells: HEK293T
T8 sequence (Q0VDG4 6-424): T5 sequence (Q0VDG4 6-424)
Description: as §6, §7, §8, §9

Row | Structure (SMILES) | increase of probe 1 labeling of recombinant AMD1 (AMD1; L-methionine lowered from 200 μM to 10 μM, AMD1 expression negligibly changed) | competition of probe 1 labelling by competitor drug [1] | competition of probe 1 labelling by competitor drug [2] | competition of probe 1 labelling by competitor drug (LGMN Legumain (Q99538)) | competition of probe 1 labelling by competitor drug [3] | competition of probe 1 labelling by co-administered non-clickable probe (HEK293T cells) | blocking of probe labeling by excess non-clickable probe (KEAP1) | blocking of probe labeling by excess non-clickable probe (FTO) | blocking of probe labeling by excess non-clickable probe (SCRN3) | blocking of probe labeling by excess non-clickable probe (AMD1)
1 | CSCC[C@H](N)C(=O)O [L-methionine] | seven-fold | – | – | – | – | – | – | – | – | –
2 | NNC(=O)c1ccncc1 [isoniazid, reference compound] | – | almost no competition | almost no competition | almost no competition | almost no competition | – | – | – | – | –
3 | NNCCc1ccccc1 [phenelzine, reference compound] | – | Near complete loss of probe labelling | Near complete loss of probe labelling | Near complete loss of probe labelling | Near complete loss of probe labelling | – | – | – | – | –
4 | CCCNN.Cl.Cl [probe 3, Propyl hydrazine dihydrochloride, reference compound] | – | – | – | – | – | suppressed by increasing concentrations; also recorded: blocks the labeling of proteins by probe 1 | blocked | blocked | blocked | blocked
5 | Cl.NNc1ccccc1 [probe 4, phenyl hydrazine hydrochloride, reference compound] | – | – | – | – | – | – | blocked | blocked | blocked | blocked
